Literature values as cited in patent US6365131B1, “Pharmaceutical dental formulation for topical application of metronidazole benzoate, chlorhexidine gluconate and local anesthetic” (priority 1997, dated 2002).

SMILES	Time to peak effect (after the application to skin or mucosal surface) [min]	Onset of anesthesia (depending on the site of administration)	Duration of action (in words)
CCOC(=O)c1ccc(N)cc1 [Benzocaine, ethyl ester of p-Aminobenzoic acid]	≤ 1		
CCN(CC)CC(=O)Nc1c(C)cccc1C [Lidocaine]		within a few minutes	intermediate duration of action
